This is an account of results in patent US20210244028A1, “TREATMENT FOR REMOVING ECTOPARASITES FROM FISH” (priority 2018, published 2021).

The subject of assay [1] is azamethiphos- and deltamethrin-resistant sea lice. The assay can be described thus: In vitro bath exposure of isolated sea lice (Example 6). The following applies: registered approx. 20 h after end of exposure. As to the method:
A trial was performed to ensure there was no cross-resistance between azamethiphos- and deltamethrin-resistant sea lice and neonicotinoids. Both pre-adult and adult stages (mobile stages) of both sexes were used, and they were equally distributed among groups. The sea lice were exposed to imidacloprid for 60 minutes, azamethiphos for 60 minutes and deltamethrin for 30 minutes in one litre baths at a range of concentrations (Tables 6, 7 and 8). The sea lice were transferred to clean aerated seawater after treatment. The temperature of the seawater during the experiment was 12° C., but during exposure the temperature raised to approx. 14° C. in regimes exposed for 60 min. (imidacloprid and azamethiphos) and to 13° C. for the regime exposed in 30 minutes (deltamethrin).
The numbers of live and immobilised (including killed) lice in each regime were registered approximately 20 h after end of exposure. Each louse was individually investigated.

Assay [2] relates to Salmon lice. Kind of assay: Bath treatment of lice-infected Atlantic salmon, percent lice removed (Example 7). Type of assay: in vivo. The following applies: 30 minutes, duplicate, 3 fish per test. The method, then:
To determine the concentration- and time-dependence of imidacloprid treatment in vivo, Atlantic salmon (average of 320.9 g) were challenged with imidacloprid in seawater ([…] salinity) at 12° C. The water level in the tank was lowered and aeration was employed during administration of the active. The salmon louse copepodid culture was counted and adjusted to obtain a target level of around 40 copepodids per fish in the challenge tank at each challenge time point.
Salmon lice on the fish were counted using standard methods. Only lice on the fish's outer surface, not including gills and oral/buccal cavities, were investigated.
Numbers of dissociated lice in tank water or attached to the tank walls were recorded. Lice in the tank water were collected and assessed for ability to attach by suction to a smooth plastic surface immediately after treatment and again after 30-60 minutes (to assess possible revival). […]
To terminate the treatment, the inner compartment with treated fish was lifted to the surface and drained, then fish were transferred directly and without water to a second basin with a lethal overdose of anaesthetic and left until dead. All lice remaining on these fish and lice that fell off in the anaesthetic bath were recorded. […]

Structures are written as SMILES. “And” between values parts separate entries of the source, which are not always exact repeats. Identical values can stand only once.

As for `CC1(C)[C@H](C(=O)O[C@H](C#N)c2cccc(Oc3ccccc3)c2)[C@@H]1C=C(Br)Br` [deltamethrin], the “% effect” value in assay [1] (5 ppm, 30 minutes exposure) was 0%; in assay [1] (15 ppm, 30 minutes exposure), 20% and 10%; in assay [1] (20 ppm, 30 minutes exposure), 20% and 10%. In addition, the Immobilised in assay [1] (5 ppm, 30 minutes exposure) is 0; in assay [1] (15 ppm, 30 minutes exposure), 2 and 1; in assay [1] (20 ppm, 30 minutes exposure), 2 and 1; in assay [1] (30 ppm, 30 minutes exposure) it was 1 and 2. The Live in assay [1] (5 ppm, 30 minutes exposure) is 10; in assay [1] (10 ppm, 30 minutes exposure) it was 9 and 10; in assay [1] (15 ppm, 30 minutes exposure), 8 and 9; in assay [1] (20 ppm, 30 minutes exposure), 8 and 9; in assay [1] (30 ppm, 30 minutes exposure) it was 10 and 8. Besides, the “% Removal” value in assay [2] (0.2 μl/l) is listed as 0^37%.
As to `COP(=O)(OC)SCn1c(=O)oc2cc(Cl)cnc21` [azamethiphos], the “% effect” value is 0% in assay [1] (5 ppm, 60 minutes exposure); 10% in assay [1] (10 ppm, 60 minutes exposure); 0% in assay [1] (15 ppm, 60 minutes exposure); 10% and 20% in assay [1] (20 ppm, 60 minutes exposure). The Immobilised in assay [1] (5 ppm, 60 minutes exposure) is 0; in assay [1] (10 ppm, 60 minutes exposure) it was 1; in assay [1] (15 ppm, 60 minutes exposure), 0; in assay [1] (20 ppm, 60 minutes exposure), 1 and 2. The Live in assay [1] (5 ppm, 60 minutes exposure) is 10; in assay [1] (10 ppm, 60 minutes exposure), 9; in assay [1] (15 ppm, 60 minutes exposure), 10; in assay [1] (20 ppm, 60 minutes exposure) it was 9 and 8; in assay [1] (30 ppm, 60 minutes exposure), 9 and 6. The “% Removal” value in assay [2] (0.1 mg/l) is 3.0^33% and 3.8^52%.
